# PubChem BioAssay AID687022 (Broad Institute, 2013)
# Active and inactive are the calls of the source.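 How the source made its calls: active means Fitted curve of melting temperature shift crosses the 1.0 threshold at or below the sample's highest valid tested concentration; inconclusive means Flat fit with activity 30 to 70, or invalid fit; inactive means Opposite direction, flat within 30, or no crossing.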
# Molecular target: Fibroblast growth factor 22 (Homo sapiens) (UniProt Q9HCT0)
# Test: binders of human FGF22 protein, dose response, FGF22 synaptogenesis inhibitor project, biophysical, thermal shift, cherry-pick (AID 687022)
# Settings: recombinant FGF22 thermal shift, SYPRO orange melting
# Fibroblast growth factor 22 (Homo sapiens), sequence (Q9HCT0 whole entry, looked up): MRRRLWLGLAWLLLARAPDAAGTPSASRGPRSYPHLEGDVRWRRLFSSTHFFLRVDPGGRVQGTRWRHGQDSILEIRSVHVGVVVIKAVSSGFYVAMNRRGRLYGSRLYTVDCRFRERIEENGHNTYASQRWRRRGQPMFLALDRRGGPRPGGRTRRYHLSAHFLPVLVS
row,SMILES,AbsAC1 (concentration giving Tm-shift threshold 1.0)
1,COc1cccc(C#Cc2ccc([C@H]3[C@H]4CN(S(=O)(=O)c5ccccc5C)CC(=O)N4[C@H]3CO)cc2)c1,16.6 µM
2,O=C(N/N=C/c1ccc(O)c(O)c1)N/N=C/c1ccc(O)c(O)c1,7.88 µM
3,CC(C)(C)S(=O)(=O)/C(C#N)=N/Nc1ccc(Cl)cc1,25.7 µM
4,CCOC(=O)c1c(C)[nH]c(C)c1C(=O)COC(=O)/C=C/c1ccccc1[N+](=O)[O-],23.9 µM
5,S=C(NCCN1CCOCC1)Nc1ccc(-c2nc3ccccc3[nH]2)cc1,7.5 µM
6,COc1ccc2cc(CCNC(=O)c3cc4ccccc4o3)c(=O)[nH]c2c1,11.3 µM
7,COc1ccc(N(CC(=O)N/N=C/c2ccc(OC)c(OC)c2)S(=O)(=O)c2ccccc2)cc1,18.5 µM
8,C[C@H](CO)N1C[C@H](C)[C@H](CN(C)C(=O)Nc2ccc3c(c2)OCO3)Oc2cc(C3=CCCCC3)ccc2S1(=O)=O,20.3 µM
9,CN1C(=O)c2cc(NC(=O)c3cccc(F)c3)ccc2OC[C@@H]2O[C@H](CC(=O)NCc3ccccc3)CC[C@@H]21,21 µM
10,COc1cccc(NC(=O)CN(C)C(=O)c2ccc(NC3CC3)c([N+](=O)[O-])c2)c1,5.08 µM
11,Nc1nc(O)c(Sc2ccccc2[N+](=O)[O-])c(=O)[nH]1,2.7 µM
12,Cc1cccc(S(=O)(=O)N2C[C@@H](O)COC[C@H]3O[C@H](CC(=O)Nc4ccc(-c5ccccc5)cc4)CC[C@@H]32)c1,16.6 µM
13,Cc1noc(C)c1NC(=O)N[C@@H]1C=C[C@H](CC(=O)Nc2ccc(-c3ccccc3)cc2)O[C@@H]1CO,5.28 µM
14,C/C=C/c1ccc2c(c1)O[C@@H](CN(C)C(=O)Nc1ccc(F)cc1)[C@@H](C)CN([C@H](C)CO)S2(=O)=O,14.8 µM
15,CS(=O)(=O)N1CC(=O)N2[C@H](CO)[C@@H](c3ccc(C#CCc4ccccc4)cc3)[C@H]2C1,37.5 µM
16,COc1ccc(-c2nc3ccc([N+](=O)[O-])cc3[nH]2)cc1,1.99 µM
17,O=[N+]([O-])c1ccc2nc(-c3ccccc3)[nH]c2c1,3.88 µM
18,CCOC(=O)N1CCN(C(=O)CCCCCn2c(=S)[nH]c3ccsc3c2=O)CC1,13.8 µM
19,Cc1ccccc1S(=O)(=O)NCC[C@@H]1CC[C@@H](NC(=O)Nc2cccc(Cl)c2)[C@@H](CO)O1,8.07 µM

row,SMILES,AbsAC1 (concentration giving Tm-shift threshold 1.0)
1,Oc1cc(O)cc(-c2cc3ccc(O)cc3o2)c1,14.9 µM
2,CN1C(=O)c2cc(NC(=O)c3cccc(F)c3)ccc2OC[C@@H]2O[C@H](CC(=O)NCC3CCCCC3)CC[C@@H]21,16.8 µM
3,Cc1cc(C)cc(NC(=O)CN2C(=O)NC(Cc3c[nH]c4ccccc34)C2=O)c1 (stereo unspecified),13 µM
4,Cc1ccc(Cl)cc1N1CCN(C(=O)Cc2c(C(=O)O)[nH]c3ccc(Cl)cc23)CC1,4.47 µM
5,COc1cccc(NC(=O)N(C)C[C@H]2Oc3cc(-c4ccccc4F)ccc3S(=O)(=O)N([C@H](C)CO)C[C@@H]2C)c1,8.76 µM
6,N#Cc1c(-c2ccccc2)nc(-c2ccncc2)[nH]c1=O,30.3 µM
7,Cc1ccc(S(=O)(=O)N(C)C[C@@H]2Oc3cc(Br)ccc3S(=O)(=O)N([C@@H](C)CO)C[C@H]2C)cc1,29.2 µM
8,O=C(CCc1ccc(O)cc1)c1c(O)cc(O)cc1O,1.74 µM
9,O=C(CNS(=O)(=O)c1ccccc1)OCC(=O)c1c[nH]c2ccccc12,9.88 µM
10,C[C@@H]1CN([C@H](C)CO)S(=O)(=O)c2ccc(-c3ccc(F)cc3)cc2O[C@@H]1CN(C)C(=O)Nc1ccccc1F,22.1 µM
11,COc1ccc(/C(O)=C/C(=O)C(=O)NNC(=O)c2ccccc2)cc1,31.6 µM
12,Oc1cc(O)cc(C=Cc2ccc(O)c(O)c2)c1,11.9 µM
13,COc1cccc(NC(=O)N(C)C[C@@H]2Oc3cc(-c4ccccc4F)ccc3S(=O)(=O)N([C@@H](C)CO)C[C@H]2C)c1,16.3 µM
14,O=C(Nc1cc(Cl)cc(Cl)c1)N[C@@H]1CC[C@@H](CCNS(=O)(=O)c2cccc(F)c2)O[C@@H]1CO,5.64 µM
15,C[C@@H]1CN([C@@H](C)CO)C(=O)Cc2cc(NC(=O)C3CC3)ccc2O[C@H]1CN(C)Cc1ccc(Cl)c(Cl)c1,16.7 µM
16,COc1ccc(C(=O)N2CCCCC2)cc1S(=O)(=O)Nc1cccc(C(=O)O)c1,9.12 µM
17,COc1cccc(NC(=O)CN(C)C(=O)c2ccc(N3CCCCC3)c([N+](=O)[O-])c2)c1,11.4 µM
18,COc1ccc(/C(=N\Nc2ccccc2C(=O)O)c2ccccc2)cc1,> 19.5 µM (inactive)

# Other lines, results leading:
row,AbsAC1 (concentration giving Tm-shift threshold 1.0),SMILES
1,6.12 µM,COc1ccc([N+](=O)[O-])cc1/C=N/Nc1nn[nH]n1
2,8.13 µM,COc1cc2cc(NC(C)=O)cc(NCc3ccccc3)c2cc1OC
3,2.95 µM,COc1ccc(Nc2nc3ccc(OC)cc3s2)cc1
4,15.6 µM,O=C(Nc1nnc(C(F)(F)F)s1)c1ccc(Br)s1
5,23.8 µM,NC(=O)Nc1ccc(C(=O)OCC(=O)Nc2sccc2C(N)=O)cc1
6,8.93 µM,O=C(Nc1nccs1)C1CC(=O)N(c2ccc(F)cc2)C1 (stereo unspecified)
7,16.3 µM,CC(=O)c1c(C)nc(-c2ccc(OCC(=O)Nc3ccc(F)cc3)cc2)n1O
8,23 µM,CC(=O)Nc1ccc(S(=O)(=O)Nc2nc3ccc([N+](=O)[O-])cc3s2)cc1
9,17.1 µM,Cc1onc(-c2ccccc2)c1C(=O)Nc1ncc([N+](=O)[O-])s1
10,> 38 µM (inactive),O=C(Nc1ccc(F)c(Cl)c1)C1CCCN(C2=NS(=O)(=O)c3ccccc32)C1 (stereo unspecified)
11,6.43 µM,O=C(NCC1CCOCC1)c1ccc2nc(Cc3cccc(Cl)c3)oc2c1
12,> 5 µM (inactive),O=C(CCc1ccccc1)c1c(O)cc(O)cc1O
13,3.44 µM,COc1cc(NC(=O)c2cnc(N)o2)cc(C(=O)Nc2cccc(C(F)(F)F)c2)c1
14,41 µM,O=C(NCC[C@@H]1CC[C@H](NC(=O)c2cnccn2)[C@H](CO)O1)Nc1ccc(F)cc1
15,16.1 µM,O=C(Nc1nc(-c2ccccn2)cs1)c1cc2ccccc2o1
16,> 10 µM (inactive),O=C(O)C[C@@H]1C[C@H]2c3cc(NC(=O)Nc4ccc(C(F)(F)F)cc4)ccc3O[C@H]2[C@@H](CO)O1
17,14.1 µM,O=C(O)c1ccc(Cl)c(S(=O)(=O)Nc2ccc(S(=O)(=O)N3CCCC3)cc2)c1
18,2.95 µM,O=C(N/N=C/c1ccc(Cl)cc1)c1ccc2nc[nH]c2c1
19,6.63 µM,NC(=NCCc1c[nH]c2ccccc12)NS(=O)(=O)c1ccc(F)cc1
20,11.9 µM,O=C(O)c1cccc(NS(=O)(=O)c2ccc(Cl)c(C(=O)Nc3cccc([N+](=O)[O-])c3)c2)c1
21,4.67 µM,O=[N+]([O-])c1ccc(S(=O)(=O)Nc2nnc(C(F)(F)F)s2)cc1
22,32 µM,COc1ccccc1NC(=O)N[C@@H]1CC[C@H](CCn2cc(-c3ccccc3OC)nn2)O[C@@H]1CO

row,AbsAC1 (concentration giving Tm-shift threshold 1.0),SMILES
1,11.1 µM,O=C(Nc1nccs1)c1ccc(S(=O)(=O)NCc2cccs2)cc1
2,11.3 µM,COc1ccc(C(=O)Nc2nc(CC(=O)NCCc3ccccc3)cs2)cc1
3,26.2 µM,CCOC(=O)c1ccc(S(=O)(=O)Nc2cc(C(=O)O)ccc2Cl)cc1
4,> 38 µM (inactive),O=C(CNC(=O)c1cccc(Br)c1)N/N=C/c1cc(Br)cc(Br)c1O
5,6.85 µM,Nc1ccc(C(=O)Nc2ccc(OC(F)(F)C(F)F)c(NC(=O)c3ccc(N)cc3)c2)cc1
6,5.28 µM,Oc1ccc(-c2nnc(Nc3cccc(O)c3)c3ccccc23)cc1
7,6.74 µM,O=C(O)Cn1cc(/C=N/NC(=O)c2cc3cc(Br)ccc3o2)c2ccccc21
8,3.06 µM,C/C(=N\NC(=O)c1ccc(NS(=O)(=O)c2cccs2)cc1)c1cccs1
9,27.6 µM,O=S(=O)(Nc1cccc(-n2cnnn2)c1)c1ccc(Cl)cc1
10,3.85 µM,CC(=O)c1ccc(NC(=O)c2noc(C(C)C)c2[N+](=O)[O-])cc1
11,3.85 µM,COc1cc(NC(=O)c2ccc3c(c2)OCCO3)ccc1NC(=O)c1cccs1
12,> 19.5 µM (inactive),CC(=O)C1=C(O)C(=O)N(c2ccc(S(=O)(=O)Nc3nccs3)cc2)C1c1ccc(F)cc1 (stereo unspecified)
13,8.19 µM,Cc1nn(-c2ccccc2)c(C)c1/C=N/NC(=O)c1cc(-c2cccs2)[nH]n1
14,18.1 µM,COc1ccc(/C=N/NC(=O)c2cc(-c3ccc4c(c3)OCO4)n[nH]2)cc1OC
15,7.52 µM,COc1ccccc1NC(=O)Nc1cccc(NC(C)=O)c1
16,4.49 µM,O=C(CC(=O)c1ccccc1)Nc1cccc([N+](=O)[O-])c1
17,10.2 µM,CCOC(=O)c1sc(NC(=O)Nc2ccccc2)cc1C
18,2.49 µM,O=C(NCCc1c[nH]c2ccccc12)c1ccc(Cl)cc1
19,15.3 µM,C[C@@H]1CN([C@H](C)CO)S(=O)(=O)c2ccc(-c3ccncc3)cc2O[C@@H]1CN(C)C(=O)Nc1ccc(C(F)(F)F)cc1
20,2.15 µM,O=C(N/N=C/c1c[nH]c2ccccc12)c1cccc(Cl)c1
21,4.09 µM,COc1ccc(NS(=O)(=O)c2ccc(Cl)c(N)c2)cc1Br
22,4.72 µM,C[C@@H]1CN([C@@H](C)CO)S(=O)(=O)c2ccc(-c3ccncc3)cc2O[C@@H]1CN(C)C(=O)Nc1ccc(F)cc1
